Literature values as cited in patent US12059506B2, “Coated implantable device” (NOBIL BIO RICERCHE S.R.L., priority 2017, dated 2024).

Settings: aqueous phase

## C[C@@H]1O[C@@H](Oc2c(-c3ccc(O)c(O)c3)oc3cc(O)cc(O)c3c2=O)[C@H](O)[C@H](O)[C@H]1O [quercitrin]
  solubility in water: insoluble
